Marks after values point to notes of the source that are not given here.
Experiments:
ORX rats [1] = experiment: Vertebral bone mineral density in ORX rats; assay type: in vivo, rat; settings: for Vertebral BMD: solvent 762.7, sham 770.8
Protocol: (§1) 11-week-old, male Sprague-Dawley (SD) rats (320 to 340 g, purchased from Charles River Japan) were housed for 1 week in a room maintained at a light-dark cycle of 12 hours per day and controlled at a set temperature and humidity while allowing free access to a commercially available standard rodent diet and water.
(§2) After housing the animals, the animals were anesthetized with ether, and underwent bilateral orchiectomy (orchiectomized rats: ORX) or a sham treatment. After awaking from the anesthesia, the animals were assigned to test groups of 3 to 5 animals each. Starting on the day after surgery, the animals were subcutaneously injected once a day with an injection solution of the test compound (prepared by dissolving the test compound in a small amount of DMSO and diluting with olive oil for animal testing (consisting of 95% olive oil and 5% DMSO)) at the rate of 0.1 ml/100 g of body weight. After 21 days, the rats were sacrificed by exsanguination from the abdominal artery, the ventral prostates and anal levator muscle were excised and weighed followed by immersing in RNAlater (Nacalai Tesque) for extraction of RNA. In addition, soft tissue was removed from the right femur, and immersed in 75% ethanol followed by storage for subsequent measurement of the bone mineral density. Moreover, liver and visceral fat tissue were collected and immersed in RNAlater for RNA extraction.
(§3) The anabolic effect of compounds was studied by using as indicators changes in anal levator muscle weight and bone mineral density (BMD) of the femur and vertebra in the ORX rats treated in the aforementioned section (4)-1).
BMD value of epiphyseal cancellous bone of the femur and vertebra of ORX rats treated in the aforementioned section (4)-1) were measured using Scan Xmate-A100S (Comscantecno).

ORX rats [2] = experiment: Plasma LH concentration in ORX rats; assay type: in vivo, rat; settings: for Plasma LH concentration: solvent 10.3, sham 1.7; for Effect on LH levels (in words): 1 and 10 mg/Kg
Description: as §2, with “Starting on the day after surgery, the animals were subcutaneously injected once a day with an injection solution of the test compound (prepared by dissolving the test compound in a small amount of DMSO and diluting with olive oil for animal testing (consisting of 95% olive oil and 5% DMSO)) at the rate of 0.1 ml/100 g of body weight.” left out
Characteristics of the effect of compounds on the pituitary gland were investigated by measuring plasma concentrations of LH and FSH in ORX rats treated in the aforementioned section (4)-1).

CPT-1 mRNA = CPT-1 mRNA level in liver and visceral fat of ORX rats; assay type: in vivo, rat
Description: as §2, with “Starting on the day after surgery, the animals were subcutaneously injected once a day with an injection solution of the test compound (prepared by dissolving the test compound in a small amount of DMSO and diluting with olive oil for animal testing (consisting of 95% olive oil and 5% DMSO)) at the rate of 0.1 ml/100 g of body weight.” left out
(§4) Total RNA in various tissues of the ORX rats was isolated using the RNeasy Mini Kit or RNeasy Fibrous Tissue Mini Kit (Qiagen). 1 μg of this total RNA was subjected to reverse transcription using the QuantiaTect Reverse Transcription Kit (Qiagen). Next, cDNA was subjected to real-time PCR analysis using LightCycler (Roche Diagnostics) and each of the transcription products was quantified. Furthermore, PCR was carried out in 20 μl of a reaction mixture under the following conditions using SYBR Premix Ex Taq (Takara Biotechnology): 50 cycles consisting of denaturation for 5 seconds at 95° C., annealing for 20 seconds at 60° C. and elongation for 25 seconds at 72° C. In addition, glyceraldehyde-3-phosphate dehydrogenase (GAPDH) mRNA was simultaneously amplified as an internal standard, and the real-time PCR value of each transcription product were calculated as a relative value based on GAPDH.
(§5) In addition, mRNA levels of insulin receptor substrate 2 (IRS-2) in the liver were also measured.

SREBP-1c mRNA = SREBP-1c mRNA level in liver and visceral fat of ORX rats; assay type: in vivo, rat
Description: as §2, with “Starting on the day after surgery, the animals were subcutaneously injected once a day with an injection solution of the test compound (prepared by dissolving the test compound in a small amount of DMSO and diluting with olive oil for animal testing (consisting of 95% olive oil and 5% DMSO)) at the rate of 0.1 ml/100 g of body weight.” left out
as §4, §5

PSA mRNA = PSA mRNA expression level in ORX rat prostates; assay type: in vivo; settings: ORX rats; for PSA mRNA/GAPDH mRNA in prostates: 21 days, solvent 1.0, sham 114.4
Description: as §2, with “Starting on the day after surgery, the animals were subcutaneously injected once a day with an injection solution of the test compound (prepared by dissolving the test compound in a small amount of DMSO and diluting with olive oil for animal testing (consisting of 95% olive oil and 5% DMSO)) at the rate of 0.1 ml/100 g of body weight.” left out
as §4
The PSA mRNA expression levels in the prostates of the ORX rats obtained in the aforementioned section (4)-1) were measured according to the method of section (4)-3).

ORX rats [3] = experiment: Anal levator muscle weight in ORX rats (anabolic effect); assay type: in vivo, rat; settings: for Anal levator muscle weight: 21 days, solvent 41.6, sham 73.1; for Change in anal levator muscle weight (in words): dihydrotestosterone 1 and 10 mg/kg, compound of formula (Ia) 10 mg/kg
Protocol: as §1, §2, §3
Anal levator muscle is a typical skeletal muscle localized around the rat rectum, and is considered to be sensitive to male steroid hormone. Although the anal levator muscle is considerably smaller in castrated rats as compared with normal male rats, its weight is well known to be able to be restored to normal by administration of androgen (J. Pharmacol. Exp. Ther., 91, 38-44). The results of measuring the weights of the anal levator muscle in the ORX rats obtained in section (4)-1) are shown in the following Table 7.

ORX rats [4] = experiment: Plasma triglyceride level in ORX rats; assay type: in vivo, rat; settings: for Plasma triglyceride concentration: solvent 130.7, sham 236.5; for Effect on triglyceride levels (in words): 1 and 10 mg/Kg
Description: as §2, with “Starting on the day after surgery, the animals were subcutaneously injected once a day with an injection solution of the test compound (prepared by dissolving the test compound in a small amount of DMSO and diluting with olive oil for animal testing (consisting of 95% olive oil and 5% DMSO)) at the rate of 0.1 ml/100 g of body weight.” left out
Plasma triglyceride and cholesterol levels were measured to characterize the metabolic profiles of ORX rats treated in the aforementioned section (4)-1).

ORX rats [5] = experiment: Plasma insulin level in ORX rats; assay type: in vivo, rat; settings: for Plasma insulin concentration: solvent 1.0, sham 1.6; for Effect on insulin levels (in words): 1 and 10 mg/Kg
Description: as §2, with “Starting on the day after surgery, the animals were subcutaneously injected once a day with an injection solution of the test compound (prepared by dissolving the test compound in a small amount of DMSO and diluting with olive oil for animal testing (consisting of 95% olive oil and 5% DMSO)) at the rate of 0.1 ml/100 g of body weight.” left out
(§6) The inventors of the present invention measured total plasma adiponectin levels in ORX rats treated in the aforementioned section (4)-1). Plasma insulin levels were also measured simultaneously.

PPARδ mRNA = PPARδ mRNA in anal levator muscle of ORX rats; assay type: in vivo, rat; settings: for PPARδ mRNA/GAPDH mRNA in anal levator muscle: solvent 1.0, sham 0.5; for Effect on PPARδ mRNA expression in anal levator muscle (in words): dihydrotestosterone 1 and 10 mg/kg, compound of formula (Ia) 10 mg/kg
Protocol: as §1, §2, §4
In addition, expression levels of peroxisome proliferator activating factor receptor-delta (PPARδ) mRNA in anal levator muscle were also measured. This is because this nuclear receptor has been indicated to be related to β-oxidation of fatty acids and energy consumption in skeletal muscle (Proc. Natl. Acad. Sci. USA, 100, 15924-15929). Furthermore, measurements were carried out using a similar method as that previously described.

ORX rats [6] = experiment: Total plasma adiponectin level in ORX rats; assay type: in vivo, rat; settings: for Plasma adiponectin concentration: solvent 2.2, sham 1.3
Protocol: as §1, §2, §6

[7] = liver, 1 mg/Kg, solvent 1.4, sham 1.0
[8] = liver, 10 mg/Kg, solvent 1.4, sham 1.0
[9] = visceral fat, 1 mg/Kg, solvent 1.7, sham 1.0
[10] = visceral fat, 10 mg/Kg, solvent 1.7, sham 1.0
[11] = liver, 1 mg/Kg, solvent 0.7, sham 1.0
[12] = liver, 10 mg/Kg, solvent 0.7, sham 1.0
[13] = visceral fat, 1 mg/Kg, solvent 1.0, sham 1.0
[14] = visceral fat, 10 mg/Kg, solvent 1.0, sham 1.0

Structure (SMILES) | Vertebral BMD (ORX rats [1]; 1 mg/Kg) [mg/mL] | Vertebral BMD (ORX rats [1]; 10 mg/Kg) [mg/mL] | Effect on LH levels (in words) (ORX rats [2]) | CPT-1 mRNA/GAPDH mRNA level (CPT-1 mRNA; [7]) | CPT-1 mRNA/GAPDH mRNA level (CPT-1 mRNA; [8]) | CPT-1 mRNA/GAPDH mRNA level (CPT-1 mRNA; [9]) | CPT-1 mRNA/GAPDH mRNA level (CPT-1 mRNA; [10]) | SREBP-1c mRNA/GAPDH mRNA level (SREBP-1c mRNA; [11]) | SREBP-1c mRNA/GAPDH mRNA level (SREBP-1c mRNA; [12]) | SREBP-1c mRNA/GAPDH mRNA level (SREBP-1c mRNA; [13]) | SREBP-1c mRNA/GAPDH mRNA level (SREBP-1c mRNA; [14]) | PSA mRNA/GAPDH mRNA in prostates (PSA mRNA; 1 mg/Kg s.c. once a day) | PSA mRNA/GAPDH mRNA in prostates (PSA mRNA; 10 mg/Kg s.c. once a day) | Anal levator muscle weight (ORX rats [3]; 1 mg/Kg s.c. once a day) | Anal levator muscle weight (ORX rats [3]; 10 mg/Kg s.c. once a day) | Change in anal levator muscle weight (in words) (ORX rats [3]) | Effect on triglyceride levels (in words) (ORX rats [4]) | Effect on insulin levels (in words) (ORX rats [5]) | PPARδ mRNA/GAPDH mRNA in anal levator muscle (PPARδ mRNA; 1 mg/Kg) | PPARδ mRNA/GAPDH mRNA in anal levator muscle (PPARδ mRNA; 10 mg/Kg) | other results
CC(=O)[C@H]1CCC2C3CCc4c(C)cccc4C3CC[C@@]21C (stereo partly drawn) [Compound of formula (Ia)] | 769.5 | 770.3 | did not inhibit LH levels, but rather increased LH levels dose-dependently | 3.2**^,# | 4.2* | 2.0 | 2.6 | 0.8 | 0.6 | 0.8 | 0.5 | 1.0** | 1.2** | 59.1^ mg/100 g body weight | 66.2* mg/100 g body weight | increased significantly to a similar level to that observed in the sham treatment group | lowered triglyceride levels considerably | this activity was milder | 0.9 | 1.7* | Vertebral BMD (ORX rats [1]; 30 mg/Kg): 775.1 mg/mL; Plasma LH concentration (ORX rats [2]; 1 mg/Kg): 12.6** ng/mL; Plasma LH concentration (ORX rats [2]; 10 mg/Kg): 19.9*^,## ng/mL; CPT-1 mRNA levels (in words) (CPT-1 mRNA; liver and visceral fat): higher in comparison with dihydrotestosterone; SREBP-1c mRNA levels (in words) (SREBP-1c mRNA; liver and visceral fat): lower in both tissues; Change in prostate PSA mRNA levels (in words) (PSA mRNA; 1 and 10 mg/Kg): no changes observed; Plasma triglyceride concentration (ORX rats [4]; 1 mg/Kg): 41.3** mg/dL; Plasma triglyceride concentration (ORX rats [4]; 10 mg/Kg): 39.3** mg/dL; Plasma insulin concentration (ORX rats [5]; 1 mg/Kg): 1.5 µg/mL; Plasma insulin concentration (ORX rats [5]; 10 mg/Kg): 2.9 µg/mL; Effect on PPARδ mRNA expression in anal levator muscle (in words) (PPARδ mRNA): enhanced this expression; Plasma adiponectin concentration (ORX rats [6]; 1 mg/Kg): 2.2* μg/mL; Plasma adiponectin concentration (ORX rats [6]; 10 mg/Kg): 2.1* μg/mL; Effect on castration-induced increase of plasma adiponectin (in words) (ORX rats [6]; 1 or 10 mg/kg): did not demonstrate such inhibitory activity on the adiponectin levels
C[C@]12CCC(=O)C[C@@H]1CC[C@@H]1[C@@H]2CC[C@]2(C)[C@@H](O)CC[C@@H]12 [Dihydrotestosterone, 5α-dihydrotestosterone, reference compound] | 768.4 | 763.2 | inhibited LH levels | 1.3 | 0.4 | 1.7 | 0.8 | 3.4 | 3.2 | 1.8 | 2.2 | 211.4**^,## | 209.8**^,## | 93.8^## mg/100 g body weight | 120.6**^,## mg/100 g body weight | weights increased beyond those in the case of the sham treated rats | raised triglyceride levels | increased the insulin levels | 0.9 | 0.5 | Effect on vertebral BMD (in words) (ORX rats [1]; 1 and 10 mg/Kg): did not have an effect on vertebral BMD; Increase of prostate PSA mRNA level in comparison with the sham treatment group (PSA mRNA; 1 and 10 mg/Kg): about 1.8 fold; Effect on PPARδ mRNA expression in anal levator muscle (in words) (PPARδ mRNA): inhibited this expression dose-dependently

Reference: patent US8623909B2, “Prophylactic/therapeutic agents for lifestyle-related diseases” (priority 2008, dated 2014)
